Experimental data from patent publication US4622417A, “L-aminodicarboxylic-(O-cycloalkyl)-L-aminocarboxylate alkyl ester sweeteners” (General Foods Corporation, priority 1984, dated 1986).
Peptide text beside a SMILES is read from it. * marks the point of attachment. tBu = CC(C)(C)*

Columns and labels:
panel of tasters = test: Sensory evaluation of sweetness: taste panel matches aqueous solutions of the compound to sucrose standard solutions (sucrose equivalency); type: in vivo; conditions: for Sucrose Equivalent: aqueous solution
Description: A taste procedure for determination of sweetness merely involves the determination of sucrose equivalency. Sucrose equivalence for sweeteners are readily determined. The amount of a sweetener that is equivalent to a given weight percent sucrose can be determined by having a panel of tasters taste solutions of a sweetener at known concentrations and match its sweetness to standard solutions of sucrose. The following sensory evaluations were obtained by a panel of experts using known weight percent aqueous solutions of the above compound matched to sucrose standard solutions as previously described.

[1] = as reported in the literature; cited from earlier work
[2] = 0.005% concentration of compound
[3] = 0.01% concentration of compound
[4] = 0.025% concentration of compound
[5] = 0.05% concentration of compound
[6] = 0.04% concentration of compound
[7] = 0.02% concentration of compound
[8] = 0.0025% concentration of compound

| SMILES | Sweetness ratio (Compound:Sucrose) (panel of tasters; [2]) | Sucrose Equivalent (panel of tasters; [2]) [%] | Sweetness ratio (Compound:Sucrose) (panel of tasters; [3]) | Sucrose Equivalent (panel of tasters; [3]) [%] | Sweetness ratio (Compound:Sucrose) (panel of tasters; [4]) | Sucrose Equivalent (panel of tasters; [4]) [%] | also measured |
| --- | --- | --- | --- | --- | --- | --- | --- |
| COC(=O)[C@H](COC1CC2CCC1(C)C2(C)C)NC(=O)[C@@H](N)CC(=O)O (stereo partly drawn) [Example 11, α-L-Aspartyl-O-1-bornyl-L-serine methyl ester] | 200 | 1 | 250 | 2.5 | 180 | 4.5 | – |
| COC(=O)[C@H](COCCC12C=CC(CC1)C2)NC(=O)[C@@H](N)CC(=O)O (stereo partly drawn) [2-(4-norbornenyl)ethyl, α-L-Aspartyl-O-[2-(4-norbornenyl)ethyl]-L-serine methyl ester] | – | – | – | – | – | – | Sweetness ratio (Compound:Sucrose) (panel of tasters; [5]): 117; Sucrose Equivalent (panel of tasters; [5]): 5.8% |
| COC(=O)[C@H](COC1CCCC1)NC(=O)[C@@H](N)CC(=O)O [cyclopentyl, α-L-aspartyl-O-(cyclopentyl)-L-serine methyl ester] | 300 | 1.5 | 230 | 2.3 | 180 | 4.5 | – |
| COC(=O)[C@H](COC1CCCCC1)NC(=O)[C@@H](N)CC(=O)O [cyclohexyl, α-L-aspartyl-O-(cyclohexyl)-L-serine methyl ester] | – | – | 120 | 1.2 | 127 | 3.2 | – |
| CCOC(=O)[C@H](COC1(C)CCCC1)NC(=O)[C@@H](N)CC(=O)O [α-L-Aspartyl-O-(1-methylcyclopentyl)-L-serine ethyl ester] | – | – | – | – | – | – | sweetness equivalent (panel of tasters; in vivo): 150 x sucrose |
| COC(=O)[C@H](COCCC1CC2CCC1C2)NC(=O)[C@@H](N)CC(=O)O (stereo partly drawn) [2-norbornylethyl, α-L-Aspartyl-O-2-norbornylethyl-L-serine methyl ester] | – | – | – | – | – | – | Sweetness ratio (Compound:Sucrose) (panel of tasters; [6]): 105; Sucrose Equivalent (panel of tasters; [6]): 4.2% |
| COC(=O)[C@H](CO[C@@]1(C)CCCC[C@H]1C)NC(=O)[C@@H](N)CC(=O)O (single isomer, unassigned) [Example 4 CIS ISOMER, L-aspartyl-O-(cis-1,2-dimethylcyclohexyl)-L-serine methyl ester] | 400 | 2.0 | 400 | 4.0 | – | – | Sucrose Equivalent (panel of tasters; 0.005% concentration of compound, listed as Cis-1,2-dimethylcyclohexyl): 2%; Sucrose Equivalent (panel of tasters; 0.01% concentration of compound, listed as Cis-1,2-dimethylcyclohexyl): 4%; Sweetness ratio (Compound:Sucrose) (panel of tasters; [7]): 350; Sucrose Equivalent (panel of tasters; [7]): 7.0%; Sucrose Equivalent (panel of tasters; 0.02% concentration of compound, listed as Cis-1,2-dimethylcyclohexyl): 7% |
| COC(=O)[C@H](COC1(C)CCCC1)NC(=O)[C@@H](N)CC(=O)O [I, L-aspartyl-O-(1-methylcyclopentyl)-L-serine methyl ester] | 500 | 2.5 | 500 | 5 | 400 | 10 | Sucrose Equivalent (panel of tasters; [5]): 12%; temporal and sensory qualities (panel of tasters; determined by the panel of experts): excellent temporal and sensory qualities |
| COC(=O)[C@H](COC1CCCC1(C)C)NC(=O)[C@@H](N)CC(=O)O (stereo partly drawn) [2,2-dimethylcyclopentyl, α-L-aspartyl-O-(2,2-dimethylcyclopentyl)-L-serine methyl ester] | 600 | 3 | 530 | 5.3 | 360 | 9 | – |
| COC(=O)[C@H](COC1CCCCC1C)NC(=O)[C@@H](N)CC(=O)O (stereo partly drawn) [2-cis-methylcyclohexyl, α-L-aspartyl-O-(2-methylcyclohexyl)-L-serine methyl ester] | 360 | 1.8 | 320 | 3.2 | 240 | 6 | – |
| CCC1(OC[C@H](NC(=O)[C@@H](N)CC(=O)O)C(=O)OC)CCCC1 [Example 5, L-aspartyl-O-(1-ethylcyclopentyl)-L-serine methyl ester] | 400 | 2 | 400 | 4 | – | – | Sweetness ratio (Compound:Sucrose) (panel of tasters; [7]): 300; Sucrose Equivalent (panel of tasters; [7]): 6% |
| COC(=O)[C@H](COC1(C)CC=CCC1)NC(=O)[C@@H](N)CC(=O)O (stereo partly drawn) [Example 7, L-aspartyl-O-(1-methylcyclohex-3-enyl)-L-serine methyl ester] | 400 | 2 | 250 | 2.5 | 160 | 4 | – |
| COC(=O)[C@H](CO[C@]1(C)CCCC[C@H]1C)NC(=O)[C@@H](N)CC(=O)O (single isomer, unassigned) [Example 4 TRANS ISOMER, L-aspartyl-O-(trans-1,2-dimethylcyclohexyl)-L-serine methyl ester] | 300 | 1.5 | 300 | 3.0 | – | – | Sucrose Equivalent (panel of tasters; 0.01% concentration of compound, listed as trans-1,2-dimethylcyclohexyl): 3%; Sweetness ratio (Compound:Sucrose) (panel of tasters; [7]): 250; Sucrose Equivalent (panel of tasters; [7]): 5.0%; Sucrose Equivalent (panel of tasters; 0.02% concentration of compound, listed as trans-1,2-dimethylcyclohexyl): 5% |
| COC(=O)[C@H](COC(C)(C)C)NC(=O)[C@@H](N)CC(=O)O [t-butyl, L-aspartyl-O-t-butyl-L-serine methyl ester, reference compound] (H-Asp-Ser(tBu)-OMe) | – | – | – | – | – | – | Sweetness ratio (Compound:Sucrose) (panel of tasters; [5]): 120; Sucrose Equivalent (panel of tasters; [5]): 6%; Sucrose Equivalent (Table 2, sweetness values of alkyl ethers) [1]: 140 |
| COC(=O)[C@H](COC(C)(C)C1CC=C(C)CC1)NC(=O)[C@@H](N)CC(=O)O (stereo partly drawn) [Example 8C, α-L-aspartyl-O-[1,1-dimethyl-1-(4-methylcyclohex-3-enyl)methyl]-L-serine methyl ester] | – | – | 220 | 2.2 | 208 | 5.2 | – |
| COC(=O)[C@H](COC1(C)CCCCCC1)NC(=O)[C@@H](N)CC(=O)O [Example 12, α-L-aspartyl-O-(1-methyl-cycloheptyl)-L-serine methyl ester] | – | – | 200 | 2 | – | – | Sweetness ratio (Compound:Sucrose) (panel of tasters; [5]): 120; Sucrose Equivalent (panel of tasters; [5]): 6% |
| CCC(C)(C)OC[C@H](NC(=O)[C@@H](N)CC(=O)O)C(=O)OC [tert. C5 H11, L-aspartyl-O-t-amyl-L-serine methyl ester] | – | – | – | – | – | – | Sucrose Equivalent (Table 2, sweetness values of alkyl ethers) [1]: 230 |
| COC(=O)[C@H](COC1CCCC1C)NC(=O)[C@@H](N)CC(=O)O (stereo partly drawn) [trans-2-methylcyclopentyl, L-aspartyl-[O-(2-methylcyclopentyl)]-L-serine methyl ester] | – | – | 300 | 3 | 212 | 5.3 | – |
| COC(=O)[C@H](COC1C(C)(C)CCC1(C)C)NC(=O)[C@@H](N)CC(=O)O [Example 10, α-L-Aspartyl-O-2,2,5,5-tetramethylcyclopentyl-L-serine methyl ester] | 1000 | 5 | 800 | 8 | – | – | Sweetness ratio (Compound:Sucrose) (panel of tasters; [8]): 1200; Sucrose Equivalent (panel of tasters; [8]): 3% |
| COC(=O)[C@H](COC(C)(C)C1CCC(C)CC1)NC(=O)[C@@H](N)CC(=O)O (stereo partly drawn) [Example 8D, α-L-aspartyl-O-[1,1-dimethyl-1-(4-methylcyclohexyl)methyl]-L-serine methyl ester] | – | – | – | – | 240 | 6 | Sucrose Equivalent (Sensory Evaluations, Example 8) (panel of tasters; 0.01% concentration): 2.2; Sucrose Equivalent (Sensory Evaluations, Example 8) (panel of tasters; 0.025% concentration): 5.2; Sweetness ratio (Compound:Sucrose) (panel of tasters; [5]): 220; Sucrose Equivalent (panel of tasters; [5]): 11% |
| COC(=O)[C@H](COC1(C)CCCCC1)NC(=O)[C@@H](N)CC(=O)O [Example 2, L-aspartyl-O-(1-methylcyclohexyl)-L-serine methyl ester] | 400 | 2 | 450 | 4.5 | 340 | 8.5 | – |
| COC(=O)[C@H](COC1(C)CCC1)NC(=O)[C@@H](N)CC(=O)O [Example 3, L-aspartyl-O-(1-methylcyclobutyl)-L-serine methyl ester] | – | – | 200 | 2 | – | – | Sweetness ratio (Compound:Sucrose) (panel of tasters; [5]): 160; Sucrose Equivalent (panel of tasters; [5]): 8% |
